Patent US20240345095A1, “AN ASSAY FOR DETERMINING GASTROINTESTINAL PERMEABILITY BY DETERMINING A RATIO OF THE CONCENTRATION OF LACTULOSE TO THE CONCENTRATION OF GALACTOSE IN THE BLOOD SAMPLE” (TriviumVet Designated Activity Company, priority 2021, published 2024)

Tests used:
[1] = Plasma absorption time course of lactulose and galactose after oral administration (findings stated in the summary); assay type: in vivo
[2] = test system: gastric ulcers; conditions: foals, ulcers associated with intravenous administration of high-dose NSAIDs; cited from earlier work
[3] = molecular target: H-2 receptors on the parietal cell (Homo sapiens, UniProt P25021); conditions: human subjects, administered intravenously; cited from earlier work
Sequence of H-2 receptors on the parietal cell (P25021 whole entry): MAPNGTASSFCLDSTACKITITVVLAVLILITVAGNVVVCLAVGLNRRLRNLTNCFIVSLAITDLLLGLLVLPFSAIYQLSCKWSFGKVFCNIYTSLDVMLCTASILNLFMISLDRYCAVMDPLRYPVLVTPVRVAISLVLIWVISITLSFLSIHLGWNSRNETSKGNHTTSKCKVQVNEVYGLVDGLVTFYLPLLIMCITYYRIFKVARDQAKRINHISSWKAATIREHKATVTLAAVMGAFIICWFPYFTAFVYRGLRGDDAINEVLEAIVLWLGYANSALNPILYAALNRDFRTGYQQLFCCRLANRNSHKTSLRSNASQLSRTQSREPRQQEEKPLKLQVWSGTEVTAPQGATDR

With O=C[C@H](O)[C@@H](O)[C@@H](O)[C@H](O)CO [galactose] the “Time at which galactose absorption peaks” value ([1]; after oral administration) was ≤ 15 min, the “Time galactose remains present in plasma at measurable micromolar concentrations” value ([1]; after oral administration, majority of individuals tested) was “approximately 60 minutes” and the “Time to peak plasma concentrations of galactose” value ([1]; galactose concentrations below 2% in the oral solution) was ≤ 5 min.
In the case of sucralfate, the “Effect on gastric ulcers” value [2] is listed as “protective effect”.
In the case of OC[C@H]1O[C@@H](O[C@@H]2[C@@H](CO)OC(O)(CO)[C@H]2O)[C@H](O)[C@@H](O)[C@H]1O (mixture of isomers) [Lactulose, lactulose], the “Time after which the rate of lactulose absorption slows” value ([1]; after oral administration) is reported as “approximately 60 minutes” and the “Period over which lactulose absorption occurs” value ([1]; health and disease states, after oral administration) is reported as “up to 3 hours”.
For NC(N)=Nc1nc(CSCCC(N)=NS(N)(=O)=O)cs1 [famotidine], the “Time to pharmacological tolerance” value [3] is given as 12-72 hours.
